Results taken from patent US9334264B2, “NAMPT inhibitors” (AbbVie Inc., priority 2012, dated 2016).

Key:
[1] = target: NAMPT (human, recombinant, C-terminally His-tagged) (Homo sapiens, UniProt P43490); assay: Time-Resolved Fluorescence Resonance Energy Transfer (TR-FRET) Binding Assay of NAMPT; conditions: absence of substrates; 6.8 nM NAMPT, 200 nM probe, equilibrated 3 hours
Protocol: Determination of the utility of compounds having Formula (I) as binders to and inhibitors of NAMPT was performed using Time-Resolved Fluorescence Resonance Energy Transfer (TR-FRET) binding assays.
Time-Resolved Fluorescence Resonance Energy Transfer (TR-FRET) Binding Assay of NAMPT
Test compounds were serially diluted (typically 11 half log dilutions) in neat DMSO to 50× final concentrations prior to dilution with assay buffer (50 mM HEPES (NaOH), pH 7.5, 100 mM NaCl, 10 mM MgCl2, 1 mM DTT, 1% Glycerol) to 3× and 6% DMSO. Six μL were transferred to 384-well low-volume plates (Owens Corning #3673). To this, 12 μL of a 1.5× solution containing enzyme, probe and antibody were added. Final concentrations in the 18 μL reactions were 1× assay buffer, 2% DMSO, 6.8 nM NAMPT (human, recombinant, C-terminally His-tagged), 200 nM probe (a potent nicotinamide-competitive inhibitor conjugated to Oregon Green 488) and 1 nM Tb-anti-His antibody (Invitrogen #PV5895). Reactions were equilibrated at room temperature for 3 hours prior to reading on an Envision multi-label plate reader (Perkin Elmer; Ex=337 nm, Em=520 and 495 nm). Time-resolved FRET ratios (Em520/Em495) were normalized to controls, plotted as a function of compound concentration and fit with the four-parameter logistic equation to determine IC50s.

NAMPT = NAMPT (Homo sapiens, UniProt P43490); assay: Time-Resolved Fluorescence Resonance Energy Transfer (TR-FRET) Binding Assay of NAMPT with PRPP; conditions: 200 μM PRPP and 2.5 mM ATP; 2 nM NAMPT, 2 nM probe, equilibrated 16 hours
Protocol: Time-Resolved Fluorescence Resonance Energy Transfer (TR-FRET) Binding Assay of NAMPT with PRPP
Compound handling and data processing were identical to the assay in the absence of substrates (above). Final concentrations were 1× assay buffer, 2% DMSO, 2 nM NAMPT, 2 nM probe, 1 nM Tb-anti-His antibody (Invitrogen #PV5895), 200 μM PRPP and 2.5 mM ATP. Reactions were equilibrated for 16 hours prior to measurement to allow for potential enzymatic modification of test compounds.

Sequence of NAMPT (P43490 whole entry): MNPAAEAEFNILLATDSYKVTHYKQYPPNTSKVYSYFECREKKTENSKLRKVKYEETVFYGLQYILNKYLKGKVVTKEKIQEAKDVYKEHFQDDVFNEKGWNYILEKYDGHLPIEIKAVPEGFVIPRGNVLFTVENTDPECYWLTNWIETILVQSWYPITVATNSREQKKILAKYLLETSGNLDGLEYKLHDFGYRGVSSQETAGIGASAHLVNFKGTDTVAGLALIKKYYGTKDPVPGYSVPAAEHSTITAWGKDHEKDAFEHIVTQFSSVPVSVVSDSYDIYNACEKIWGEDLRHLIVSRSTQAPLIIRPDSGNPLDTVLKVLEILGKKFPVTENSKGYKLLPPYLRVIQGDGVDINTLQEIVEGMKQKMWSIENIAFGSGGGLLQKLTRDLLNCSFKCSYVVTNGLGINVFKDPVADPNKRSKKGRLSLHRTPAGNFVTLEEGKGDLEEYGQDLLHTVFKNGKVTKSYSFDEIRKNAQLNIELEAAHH
Sequence of NAMPT (human, recombinant, C-terminally His-tagged) (P43490 whole entry): as above

SMILES	IC50 [1] [nM]	IC50 (NAMPT) [nM]
CC(C)CCN(Cc1cccc(F)c1)c1ncc(C(=O)NCCCn2ccnc2)s1 [Example 56, 2-[(3-fluorobenzyl)(3-methylbutyl)amino]-N-[3-(1H-imidazol-1-yl)propyl]-1,3-thiazole-5-carboxamide]	6070	0.719
CCOC(=O)CCNC(=O)N(Cc1ccc(C#N)cc1)c1ncc(C(=O)NCCCn2ccnc2)s1 [Example 159, ethyl N-[(4-cyanobenzyl)(5-{[3-(1H-imidazol-1-yl)propyl]carbamoyl}-1,3-thiazol-2-yl)carbamoyl]-beta-alaninate]	8230	291
CNC(=O)CN(Cc1ccc(F)cc1)c1ncc(C(=O)NCCCn2ccnc2)s1 [Example 18, 2-{(4-fluorobenzyl)[2-(methylamino)-2-oxoethyl]amino}-N-[3-(1H-imidazol-1-yl)propyl]-1,3-thiazole-5-carboxamide]	4820	814
CC(C)OCCNC(=O)N(Cc1ccc(F)cc1)c1ncc(C(=O)NCCCn2ccnc2)s1 [Example 87, 2-[(4-fluorobenzyl){[2-(propan-2-yloxy)ethyl]carbamoyl}amino]-N-[3-(1H-imidazol-1-yl)propyl]-1,3-thiazole-5-carboxamide]	2260	1.26
CC(C)C(=O)NCCNC(=O)N(Cc1ccc(C#N)cc1)c1ncc(C(=O)NCCCn2ccnc2)s1 [Example 147, 2-[(4-cyanobenzyl)({2-[(2-methylpropanoyl)amino]ethyl}carbamoyl)amino]-N-[3-(1H-imidazol-1-yl)propyl]-1,3-thiazole-5-carboxamide]	> 10000	71.9
CC(C)CC(=O)N(CCc1ccc(F)cc1)c1ncc(C(=O)NCCCn2ccnc2)s1 [Example 45, 2-{[2-(4-fluorophenyl)ethyl](3-methylbutanoyl)amino}-N-[3-(1H-imidazol-1-yl)propyl]-1,3-thiazole-5-carboxamide]	611	0.206
COCCC(=O)N(CCOC(C)C)c1ncc(C(=O)NCCCn2ccnc2)s1 [Example 179, N-[3-(1H-imidazol-1-yl)propyl]-2-{(3-methoxypropanoyl)[2-(propan-2-yloxy)ethyl]amino}-1,3-thiazole-5-carboxamide]	9800	0.492
CCOC(=O)C(C)(C)CNC(=O)N(Cc1ccc(C#N)cc1)c1ncc(C(=O)NCCCn2ccnc2)s1 [Example 163, ethyl 3-{[(4-cyanobenzyl)(5-{[3-(1H-imidazol-1-yl)propyl]carbamoyl}-1,3-thiazol-2-yl)carbamoyl]amino}-2,2-dimethylpropanoate]	6800	171
COCC(COC)NC(=O)N(Cc1ccc(F)cc1)c1ncc(C(=O)NCCCn2ccnc2)s1 [Example 89, 2-{[(1,3-dimethoxypropan-2-yl)carbamoyl](4-fluorobenzyl)amino}-N-[3-(1H-imidazol-1-yl)propyl]-1,3-thiazole-5-carboxamide]	5830	1.98
COCCC(=O)N(Cc1ccc(Cl)cn1)c1ncc(C(=O)NCCCn2ccnc2)s1 [Example 96, 2-{[(5-chloropyridin-2-yl)methyl](3-methoxypropanoyl)amino}-N-[3-(1H-imidazol-1-yl)propyl]-1,3-thiazole-5-carboxamide]	4190	3.35
COCCC(=O)N(Cc1cccnc1)c1ncc(C(=O)NCCCn2ccnc2)s1 [Example 122, N-[3-(1H-imidazol-1-yl)propyl]-2-[(3-methoxypropanoyl)(pyridin-3-ylmethyl)amino]-1,3-thiazole-5-carboxamide]	> 10000	4.31
CN(Cc1ccc(-c2cccnc2)cc1)c1ncc(C(=O)NCCCn2ccnc2)s1 [Example 2, N-[3-(1H-imidazol-1-yl)propyl]-2-{methyl[4-(pyridin-3-yl)benzyl]amino}-1,3-thiazole-5-carboxamide]	7560	4.29
CC(C)CCN(Cc1ccccc1F)c1ncc(C(=O)NCCCn2ccnc2)s1 [Example 55, 2-[(2-fluorobenzyl)(3-methylbutyl)amino]-N-[3-(1H-imidazol-1-yl)propyl]-1,3-thiazole-5-carboxamide]	> 10000	3180
N#Cc1ccc(CN(C(=O)NCCOCCO)c2ncc(C(=O)NCCCn3ccnc3)s2)cc1 [Example 125, 2-[(4-cyanobenzyl){[2-(2-hydroxyethoxy)ethyl]carbamoyl}amino]-N-[3-(1H-imidazol-1-yl)propyl]-1,3-thiazole-5-carboxamide]	> 10000	0.712
COCCC(=O)N(Cc1scnc1C)c1ncc(C(=O)NCCCn2ccnc2)s1 [Example 99, N-[3-(1H-imidazol-1-yl)propyl]-2-{(3-methoxypropanoyl)[(4-methyl-1,3-thiazol-5-yl)methyl]amino}-1,3-thiazole-5-carboxamide]	3560	1.5
COCCC(=O)N(Cc1ccc(F)cc1)c1ncc(C(=O)NCCCn2ccnc2)s1 [Example 25, 2-[(4-fluorobenzyl)(3-methoxypropanoyl)amino]-N-[3-(1H-imidazol-1-yl)propyl]-1,3-thiazole-5-carboxamide]	1630	1.4
N#Cc1ccc(CN(C(=O)CC2CCOC2)c2ncc(C(=O)NCCCn3ccnc3)s2)cc1 (stereo not drawn) [Example 61, 2-[(4-cyanobenzyl)(tetrahydrofuran-3-ylacetyl)amino]-N-[3-(1H-imidazol-1-yl)propyl]-1,3-thiazole-5-carboxamide]	1900	1.78
CCOCCNC(=O)N(Cc1ccc(F)cc1)c1ncc(C(=O)NCCCn2ccnc2)s1 [Example 83, 2-{[(2-ethoxyethyl)carbamoyl](4-fluorobenzyl)amino}-N-[3-(1H-imidazol-1-yl)propyl]-1,3-thiazole-5-carboxamide]	2890	0.998
COCCC(=O)N(Cc1ncccn1)c1ncc(C(=O)NCCCn2ccnc2)s1 [Example 93, N-[3-(1H-imidazol-1-yl)propyl]-2-[(3-methoxypropanoyl)(pyrimidin-2-ylmethyl)amino]-1,3-thiazole-5-carboxamide]	> 10000	16.6
COCC(C)NC(=O)N(Cc1ccc(F)cc1)c1ncc(C(=O)NCCCn2ccnc2)s1 (stereo not drawn) [Example 80, 2-{(4-fluorobenzyl)[(1-methoxypropan-2-yl)carbamoyl]amino}-N-[3-(1H-imidazol-1-yl)propyl]-1,3-thiazole-5-carboxamide]	8020	1.37
O=C(NCCCn1ccnc1)c1cnc(N(Cc2ccc(F)cc2)Cc2ccccc2Cl)s1 [Example 16, 2-[(2-chlorobenzyl)(4-fluorobenzyl)amino]-N-[3-(1H-imidazol-1-yl)propyl]-1,3-thiazole-5-carboxamide]	4720	217
COCCN(C(=O)Cc1ccc(Oc2ccccc2)cc1)c1ncc(C(=O)NCCCn2ccnc2)s1 [Example 186, N-[3-(1H-imidazol-1-yl)propyl]-2-{(2-methoxyethyl)[(4-phenoxyphenyl)acetyl]amino}-1,3-thiazole-5-carboxamide]	1100	1.23
CC(C)CC(=O)N(CCc1ccc(C#N)cc1)c1ncc(C(=O)NCCCn2ccnc2)s1 [Example 48, 2-{[2-(4-cyanophenyl)ethyl](3-methylbutanoyl)amino}-N-[3-(1H-imidazol-1-yl)propyl]-1,3-thiazole-5-carboxamide]	807	0.701
CC(C)NC(=O)N(Cc1ccc(F)cc1)c1ncc(C(=O)NCCCn2ccnc2)s1 [Example 46, 2-[(4-fluorobenzyl)(propan-2-ylcarbamoyl)amino]-N-[3-(1H-imidazol-1-yl)propyl]-1,3-thiazole-5-carboxamide]	9520	2.2
CC(C)CCN(Cc1ccc(Cl)cc1)c1ncc(C(=O)NCCCn2ccnc2)s1 [Example 59, 2-[(4-chlorobenzyl)(3-methylbutyl)amino]-N-[3-(1H-imidazol-1-yl)propyl]-1,3-thiazole-5-carboxamide]	> 10000	266
CC(C)(CO)CNC(=O)N(Cc1ccc(C#N)cc1)c1ncc(C(=O)NCCCn2ccnc2)s1 [Example 127, 2-{(4-cyanobenzyl)[(3-hydroxy-2,2-dimethylpropyl)carbamoyl]amino}-N-[3-(1H-imidazol-1-yl)propyl]-1,3-thiazole-5-carboxamide]	3180	0.533
COCCC(=O)N(Cc1ccc(Cl)cc1)c1ncc(C(=O)NCCCn2ccnc2)s1 [Example 114, 2-[(4-chlorobenzyl)(3-methoxypropanoyl)amino]-N-[3-(1H-imidazol-1-yl)propyl]-1,3-thiazole-5-carboxamide]	1990	2.31
